Assay results published in patent US9890185B2, “Urea derivatives useful as kinase inhibitors” (Respivert Limited, priority 2013, dated 2018).

Assays:
GSK 3α = GSK 3α (Homo sapiens (Human), UniProt P49840); test: GSK 3α enzyme inhibition (FRET, Z-LYTE, Method 2); type: biochemical; conditions: read-out: IC50 Values for Enzyme Inhibition, GSK3α
Method in brief: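 Recombinant human GSK3α was preincubated with compound (stocks 4, 0.4, 0.04 or 0.004 μg/mL) at RT, 2 hr for Method 1 and 105 min for Method 2. FRET peptide (8 μM stock) and ATP (40 μM stock) were added for 1 hr, then protease development for 1 hr. IC50 was taken from concentration–response curves.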

PBMCs [1] = test: IFN gamma release in CD3/CD28 stimulated PBMC cells (assay c); type: cell-based; conditions: Homo sapiens, read-out: IC50 Values for Inhibition of Cytokine Release, PBMCs IFNγ
Experimental: (§1) PBMCs from healthy subjects are separated from whole blood using a density gradient (Lymphoprep, Axis-Shield Healthcare). Cells are added to a 96 well plate pre-coated with a mixture of CD3/CD28 monoclonal antibodies (0.3 μg/mL eBioscience and 3 μg/mL BD Pharmingen respectively). Compound at the desired concentration is then added to the wells and the plate left for 3 days under normal tissue culture conditions. Supernatants are harvested and IL-2 and IFN gamma release determined by Sandwich ELISA (Duo-set, R&D System). The IC50 is determined from the dose response curve.

[2] = molecular target: p38 MAPKα isoform (MAPK14) (Homo sapiens (Human), UniProt Q16539); test: p38 MAPKα enzyme inhibition (FRET, Z-LYTE, Method 2); type: biochemical
p38 MAPKα isoform (MAPK14), sequence (Q16539 whole entry, canonical isoform): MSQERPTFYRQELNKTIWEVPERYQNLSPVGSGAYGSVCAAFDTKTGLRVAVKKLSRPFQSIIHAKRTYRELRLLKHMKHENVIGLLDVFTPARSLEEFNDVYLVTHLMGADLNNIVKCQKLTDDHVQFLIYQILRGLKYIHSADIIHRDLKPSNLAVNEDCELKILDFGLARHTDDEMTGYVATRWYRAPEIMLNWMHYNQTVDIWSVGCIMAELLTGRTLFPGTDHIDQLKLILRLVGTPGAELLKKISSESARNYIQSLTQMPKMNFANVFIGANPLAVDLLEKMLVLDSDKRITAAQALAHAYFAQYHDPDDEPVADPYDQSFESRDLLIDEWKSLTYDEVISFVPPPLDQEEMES
Method in brief: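 Z-LYTE FRET: p38 MAPKα (80 ng/mL for Method 1, 200 ng/mL for Method 2, pre-dilution) preincubated 2 hr RT with compound (4–0.004 μg/mL solutions), activity read via MAPKAP-K2 phosphorylation after 1 hr RT and 1 hr protease development. Coumarin/fluorescein ratio gives phosphorylation; % inhibition versus uninhibited control, IC50 from concentration-response curve.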

c-Src = c-Src (Homo sapiens (Human), UniProt P12931); test: c-Src enzyme inhibition (FRET, Z-LYTE); type: biochemical
c-Src, sequence (P12931 whole entry, looked up): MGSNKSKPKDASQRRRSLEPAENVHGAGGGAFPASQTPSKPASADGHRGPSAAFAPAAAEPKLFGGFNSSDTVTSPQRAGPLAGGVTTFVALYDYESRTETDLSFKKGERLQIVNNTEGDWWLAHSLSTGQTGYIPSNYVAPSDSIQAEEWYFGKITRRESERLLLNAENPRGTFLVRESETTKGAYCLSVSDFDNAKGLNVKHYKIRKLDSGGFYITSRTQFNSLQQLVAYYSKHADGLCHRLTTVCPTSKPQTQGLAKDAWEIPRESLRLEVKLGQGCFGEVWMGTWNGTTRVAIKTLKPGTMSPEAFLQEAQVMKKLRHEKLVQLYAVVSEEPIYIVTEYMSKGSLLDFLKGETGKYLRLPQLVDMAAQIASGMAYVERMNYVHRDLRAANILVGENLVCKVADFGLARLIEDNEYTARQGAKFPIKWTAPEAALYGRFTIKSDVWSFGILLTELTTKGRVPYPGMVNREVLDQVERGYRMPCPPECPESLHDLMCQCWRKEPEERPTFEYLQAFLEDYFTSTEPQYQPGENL
Method in brief: (§2)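 Read-out is the coumarin-to-fluorescein emission ratio after protease cleavage of unphosphorylated peptide, with IC50 taken from concentration-response data. Compounds were tested at four levels (added solutions 4–0.004 μg/mL) after 2 hr enzyme preincubation at RT; kinase reaction ran 1 hr with ATP solutions of 800 μM (c-Src) or 60 μM (Syk).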

PBMCs [3] = test: IL-2 release in CD3/CD28 stimulated PBMC cells (assay c); type: cell-based; conditions: Homo sapiens, read-out: IC50 Values for Inhibition of Cytokine Release, PBMCs IL-2
Experimental: as §1

PBMCs [4] = test: Cell mitosis assay in PBMCs (assay g); type: cell-based; conditions: Homo sapiens, PBMC, test compound 5 μg/mL
Method in brief: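 Human PBMCs from healthy donors, stimulated with 2% PHA for 48 hr, then exposed to test compounds for 20 hr, with demecolcine (0.1 μg/mL) added 2 hr before harvest. Cells fixed/permeabilised, stained for phospho-histone 3 and propidium iodide, and read by flow cytometry gated on lymphocytes. % mitosis inhibition vs 0.5% DMSO vehicle.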

Syk = Syk (Homo sapiens (Human), UniProt P43405); test: Syk enzyme inhibition (FRET, Z-LYTE); type: biochemical
Method in brief: as §2

PBMCs [5] = test: LPS-induced IL-8 release in PBMC cells (assay b); type: cell-based, human; conditions: Homo sapiens, PBMC; LPS-stimulated PBMCs; read-out: IC50 Values for Inhibition of Cytokine Release, PBMCs IL-8
Method in brief: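 Human PBMCs from healthy donors, isolated by density gradient, were pretreated with compound for 2 h and then stimulated with 1 ng/mL LPS (E. coli 0111:B4) for 24 h at 37° C, 5% CO2. Supernatant IL-8 and TNFα were measured by sandwich ELISA, and IC50 was taken from the dose-response curve.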

GSK 3α, sequence (P49840 whole entry): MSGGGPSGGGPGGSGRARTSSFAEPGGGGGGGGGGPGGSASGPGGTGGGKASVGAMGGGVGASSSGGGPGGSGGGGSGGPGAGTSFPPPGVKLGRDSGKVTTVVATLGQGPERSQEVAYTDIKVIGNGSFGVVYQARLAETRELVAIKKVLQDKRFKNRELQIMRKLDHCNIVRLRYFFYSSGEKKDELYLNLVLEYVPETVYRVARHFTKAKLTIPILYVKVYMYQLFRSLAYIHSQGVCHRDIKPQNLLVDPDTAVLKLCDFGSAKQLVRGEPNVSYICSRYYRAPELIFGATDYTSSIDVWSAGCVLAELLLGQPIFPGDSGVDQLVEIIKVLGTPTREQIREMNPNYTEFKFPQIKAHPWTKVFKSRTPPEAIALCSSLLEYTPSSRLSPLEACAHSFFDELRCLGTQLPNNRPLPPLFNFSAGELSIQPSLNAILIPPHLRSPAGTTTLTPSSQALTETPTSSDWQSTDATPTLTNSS

| IC50 (GSK 3α) [nM] | IC50 [2] [nM] | IC50 (c-Src) [nM] | IC50 (Syk) [nM] | SMILES | IC50 (PBMCs [1]) [nM] | IC50 (PBMCs [3]) [nM] | inhibition at 5 µg/mL (PBMCs [4]) [%] | IC50 (PBMCs [5]) [nM] |
| --- | --- | --- | --- | --- | --- | --- | --- | --- |
| 11000 | 87 | 155 | > 1380 | COc1cc(Nc2cc(Oc3ccc(NC(=O)Nc4cc(C(C)(C)C)cc(CC(N)=O)c4OC)c4ccccc34)ccn2)cc(S(=O)(=O)C2CC2)c1 [38(ad), 2-(5-(tert-Butyl)-3-(3-(4-((2-((3-(cyclopropylsulfonyl)-5-methoxyphenyl)amino)pyridin-4-yl)oxy)naphthalen-1-yl)ureido)-2-methoxyphenyl)acetamide] | 10.9 | 214 | 14.5 | 2.2 |
| 13900 | 619 | 311 | > 1550 | COc1cc(C#N)cc(Nc2cc(Oc3ccc(NC(=O)Nc4cc(C(C)(C)C)cc(CC(N)=O)c4OC)c4ccccc34)ccn2)c1 [38(ah), 2-(5-(tert-Butyl)-3-(3-(4-((2-((3-cyano-5-methoxyphenyl)amino)pyridin-4-yl)oxy)naphthalen-1-yl)ureido)-2-methoxyphenyl)acetamide] | 10.6 | 350 | 6.7 | 2.3 |
| > 13200 | 295 | 220 | > 1380 | COc1cc(Nc2cc(Oc3ccc(NC(=O)Nc4cc(C(C)(C)C)cc(CC(N)=O)c4OC)c4ccccc34)ccn2)cc(S(=O)(=O)N(C)C)c1 [38(aj), 2-(5-(tert-Butyl)-3-(3-(4-((2-((3-(N,N-dimethylsulfamoyl)-5-methoxyphenyl)amino)pyridin-4-yl)oxy)naphthalen-1-yl)ureido)-2-methoxyphenyl)acetamide] | 9.6 | 340 | -1 | 2.1 |
| 3600 | 48 | 24 | 99 | COc1cc(Nc2cc(Oc3ccc(NC(=O)Nc4cc(C(C)(C)C)cc(S(C)(=O)=O)c4OC)c4ccccc34)ccn2)cc(C(=O)NCCN2CC[S+]([O-])CC2)c1 [38(an), 3-((4-((4-(3-(5-(tert-Butyl)-2-methoxy-3-(methylsulfonyl)phenyl)ureido)naphthalen-1-yl)oxy)pyridin-2-yl)amino)-5-methoxy-N-(2-(1-oxidothiomorpholino)ethyl)benzamide] | 8.2 | 81.8 | 30.1 | 3.8 |
| 867 | 21 | 15 | 393 | COCCOCCOCCNC(=O)c1cc(Nc2cc(Oc3ccc(NC(=O)Nc4cc(C(C)(C)C)cc(CNC(C)=O)c4OC)c4ccccc34)ccn2)cc(OC)c1 [38(y), 3-((4-((4-(3-(3-(Acetamidomethyl)-5-(tert-butyl)-2-methoxyphenyl)ureido)naphthalen-1-yl)oxy)pyridin-2-yl)amino)-5-methoxy-N-(2-(2-(2-methoxyethoxy)ethoxy)ethyl)benzamide] | 7.9 | 28.3 | 65.7 | 0.5 |
| 3940 | 39 | 218 | > 1160 | COc1cc(Nc2cc(Oc3ccc(NC(=O)Nc4cc(C(C)(C)C)cc(P(C)(C)=O)c4OC)c4ccccc34)ccn2)cc(S(=O)(=O)N(C)CCCN2CCOCC2)c1 [79(d), 1-(5-tert-Butyl-3-dimethylphosphoryl-2-methoxy-phenyl)-3-[4-[[2-[3-methoxy-5-[methyl(3-morpholinopropyl)sulfamoyl]anilino]-4-pyridyl]oxy]-1-naphthyl]urea] | 14.6 | 624 | 19.9 | 3.9 |
| 2670 | 25 | 37 | > 1230 | COCCOCCOCCNC(=O)c1cc(Nc2cc(Oc3ccc(NC(=O)Nc4cc(C(C)(C)C)cc([S+](C)[O-])c4OC)c4ccccc34)ccn2)cc(OC)c1 (centres unmarked) [Example 48, 3-((4-((4-(3-(5-(tert-Butyl)-2-methoxy-3-(methylsulfinyl)phenyl)ureido)naphthalen-1-yl)oxy)pyridin-2-yl)amino)-5-methoxy-N-(2-(2-(2-methoxyethoxy)ethoxy)ethyl)benzamide] | 3.7 | 116 | 35.6 | 0.4 |
| 4510 | 124 | 39 | > 1340 | COc1c(CC(N)=O)cc(C(C)(C)C)cc1NC(=O)Nc1ccc(Oc2ccnc(Nc3cc(C#N)cc(OCCN4CCOCC4)c3)c2)c2ccccc12 [Example 49, 2-(5-(tert-Butyl)-3-(3-(4-((2-((3-cyano-5-(2-morpholinoethoxy)phenyl)amino)pyridin-4-yl)oxy)naphthalen-1-yl)ureido)-2-methoxyphenyl)acetamide] | 5.7 | 91 | 43.9 | 0.8 |
| 8710 | 158 | 55 | > 1340 | COc1c(NC(=O)Nc2ccc(Oc3ccnc(Nc4cc(C#N)cc(OCCN5CCOCC5)c4)c3)c3ccccc23)cc(C(C)(C)C)cc1[S+](C)[O-] (centres unmarked) [Example 51, 1-(5-(tert-Butyl)-2-methoxy-3-(methylsulfinyl)phenyl)-3-(4-((2-((3-cyano-5-(2-morpholinoethoxy)phenyl)amino)pyridin-4-yl)oxy)naphthalen-1-yl)urea] | 75.2 | 101 | 28 | 1.3 |
| > 12500 | > 1250 | 235 | > 1250 | COc1c(CNC(C)=O)cc(C(C)(C)C)cc1NC(=O)Nc1ccc(Oc2ccnc(Nc3cc(OCCN4CCOCC4)cc(C(F)(F)F)c3)c2)c2ccccc12 [Example 52] | 5.5 | 43.5 | 46.8 | 2.8 |
| 1560 | 12 | 22 | > 1240 | COCCOCCOCCNC(=O)c1cc(Nc2cc(Oc3ccc(NC(=O)Nc4cc(C(C)(C)C)cc(CC(N)=O)c4OC)c4ccccc34)ccn2)cc(OC)c1 [Example 53, 3-((4-((4-(3-(3-(2-Amino-2-oxoethyl)-5-(tert-butyl)-2-methoxyphenyl)ureido)naphthalen-1-yl)oxy)pyridin-2-yl)amino)-5-methoxy-N-(2-(2-(2-methoxyethoxy)ethoxy)ethyl)benzamide] | 6 | 52.5 | 22.3 | 1.1 |
| > 5020 | 63 | 43 | 590 | COc1cc(Nc2cc(Oc3ccc(NC(=O)Nc4cc(C(C)(C)C)cc(S(C)(=O)=O)c4OC)c4ccccc34)ccn2)cc(C(=O)NCCN2CCOCC2)c1 [Example 54, 3-((4-((4-(3-(5-(tert-Butyl)-2-methoxy-3-(methylsulfonyl)phenyl)ureido)naphthalen-1-yl)oxy)pyridin-2-yl)amino)-5-methoxy-N-(2-morpholinoethyl)benzamide] | 3.7 | 37.9 | 51.9 | 1.5 |
| 2480 | 38 | 37 | > 692 | COc1cc(Nc2cc(Oc3ccc(NC(=O)Nc4cc(C(C)(C)C)cc([S+](C)[O-])c4OC)c4ccccc34)ccn2)cc(C(N)=O)c1 (centres unmarked) [Example 55, 3-((4-((4-(3-(5-(tert-Butyl)-2-methoxy-3-(methylsulfinyl)phenyl)ureido)naphthalen-1-yl)oxy)pyridin-2-yl)amino)-5-methoxybenzamide] | 6.2 | 31.2 | 51.7 | 0.6 |
